Read-outs that look alike come from different tables or passages of the source.
Tests used:
Type in all cases: biochemical
[1] = target: T1, PKD2 (Homo sapiens, UniProt Q9BZL6); test: Activity against various protein tyrosine kinases: PKD2; conditions: for inhibition at 0.01 µM: 10 nM
T1 sequence (Q9BZL6 1-878): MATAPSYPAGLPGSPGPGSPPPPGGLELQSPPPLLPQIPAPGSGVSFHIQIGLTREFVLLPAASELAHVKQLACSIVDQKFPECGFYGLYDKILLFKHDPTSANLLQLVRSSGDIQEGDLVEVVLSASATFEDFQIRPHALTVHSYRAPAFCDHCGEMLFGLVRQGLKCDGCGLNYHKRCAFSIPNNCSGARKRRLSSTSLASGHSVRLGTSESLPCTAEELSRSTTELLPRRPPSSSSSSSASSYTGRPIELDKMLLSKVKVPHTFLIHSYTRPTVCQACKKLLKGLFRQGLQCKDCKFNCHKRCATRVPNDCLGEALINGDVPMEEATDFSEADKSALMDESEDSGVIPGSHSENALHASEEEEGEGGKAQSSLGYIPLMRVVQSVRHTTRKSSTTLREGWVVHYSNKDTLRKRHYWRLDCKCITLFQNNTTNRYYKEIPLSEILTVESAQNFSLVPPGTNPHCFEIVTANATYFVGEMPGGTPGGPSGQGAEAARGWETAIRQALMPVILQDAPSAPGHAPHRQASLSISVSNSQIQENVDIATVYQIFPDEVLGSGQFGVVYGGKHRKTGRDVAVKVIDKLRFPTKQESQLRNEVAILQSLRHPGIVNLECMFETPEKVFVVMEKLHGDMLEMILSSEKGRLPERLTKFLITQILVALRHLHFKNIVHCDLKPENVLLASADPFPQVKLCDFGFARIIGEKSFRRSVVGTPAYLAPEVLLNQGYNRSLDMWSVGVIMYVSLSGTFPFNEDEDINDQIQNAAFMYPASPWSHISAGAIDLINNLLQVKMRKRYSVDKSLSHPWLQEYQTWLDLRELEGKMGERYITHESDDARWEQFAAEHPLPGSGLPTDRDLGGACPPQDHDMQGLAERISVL
Description: (§1) Using techniques know those of ordinary skill in the art, compounds were tested for activity against various protein tyrosine kinases.

[2] = target: MAPKAPK3 (Homo sapiens, UniProt Q16644); test: Activity against various protein tyrosine kinases: MAPKAPK3; conditions: for inhibition at 0.01 µM: 10 nM
Description: as §1

[3] = target: ABL (H396P) (Homo sapiens, UniProt P00519, H396P); test: Activity against various protein tyrosine kinases: ABL (H396P); conditions: for inhibition at 0.01 µM: read-out: % Inhibition at 10 nM; for inhibition at 1 µM: read-out: % Inhibition at 1 μM
Description: as §1

[4] = target: FYN (Homo sapiens, UniProt P06241); test: Activity against various protein tyrosine kinases: FYN; conditions: for inhibition at 0.01 µM: 10 nM
Description: as §1

[5] = target: MAPKAPK2 (Homo sapiens, UniProt P49137); test: Activity against various protein tyrosine kinases: MAPKAPK2; conditions: for inhibition at 0.01 µM: 10 nM
Description: as §1

[6] = target: T2, AurC (Homo sapiens, UniProt Q9UQB9); test: Activity against various protein tyrosine kinases: AurC; conditions: for inhibition at 0.01 µM: 10 nM
T2 sequence (Q9UQB9 1-309): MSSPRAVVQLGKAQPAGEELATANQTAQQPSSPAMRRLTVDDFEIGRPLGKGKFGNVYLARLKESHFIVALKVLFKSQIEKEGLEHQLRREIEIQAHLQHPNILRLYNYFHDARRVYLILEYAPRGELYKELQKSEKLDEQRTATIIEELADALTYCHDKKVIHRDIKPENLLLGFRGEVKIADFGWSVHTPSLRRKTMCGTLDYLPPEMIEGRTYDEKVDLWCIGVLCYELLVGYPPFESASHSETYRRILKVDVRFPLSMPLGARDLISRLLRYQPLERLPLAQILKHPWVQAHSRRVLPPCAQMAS
Description: as §1

[7] = target: HCK (Homo sapiens, UniProt P08631); test: Activity against various protein tyrosine kinases: HCK; conditions: for inhibition at 0.01 µM: 10 nM
Description: as §1

[8] = target: SRC (Homo sapiens, UniProt P12931); test: Activity against various protein tyrosine kinases: SRC; conditions: for inhibition at 0.01 µM: 10 nM
Description: as §1

[9] = target: BTK (Homo sapiens, UniProt Q06187); test: Activity against various protein tyrosine kinases: BTK; conditions: for inhibition at 0.01 µM: 10 nM
Description: as §1

[10] = target: LCK (Homo sapiens, UniProt P06239); test: Activity against various protein tyrosine kinases: LCK; conditions: for inhibition at 0.01 µM: 10 nM
Description: as §1

[11] = target: EPHA2 (Homo sapiens, UniProt P29317); test: Activity against various protein tyrosine kinases: EPHA2; conditions: for inhibition at 0.01 µM: 10 nM
Description: as §1

[12] = target: PDGFR_beta (Homo sapiens, UniProt P09619); test: Activity against various protein tyrosine kinases: PDGFR_beta; conditions: for inhibition at 0.01 µM: 10 nM
Description: as §1

[13] = target: ABL (Homo sapiens, UniProt P00519); test: Activity against various protein tyrosine kinases: ABL; set-up: purchased MILLIPORE 14-529; conditions: for inhibition at 0.01 µM: read-out: % Inhibition at 10 nM; for inhibition at 1 µM: read-out: % Inhibition at 1 μM
Description: as §1

[14] = target: FGFR3 (Homo sapiens, UniProt P22607); test: Activity against various protein tyrosine kinases: FGFR3; conditions: for inhibition at 0.01 µM: 10 nM
Description: as §1

[15] = target: T3, p38-delta (Homo sapiens, UniProt O15264); test: Activity against various protein tyrosine kinases: p38-delta; conditions: for inhibition at 0.01 µM: 10 nM
T3 sequence (O15264 1-365): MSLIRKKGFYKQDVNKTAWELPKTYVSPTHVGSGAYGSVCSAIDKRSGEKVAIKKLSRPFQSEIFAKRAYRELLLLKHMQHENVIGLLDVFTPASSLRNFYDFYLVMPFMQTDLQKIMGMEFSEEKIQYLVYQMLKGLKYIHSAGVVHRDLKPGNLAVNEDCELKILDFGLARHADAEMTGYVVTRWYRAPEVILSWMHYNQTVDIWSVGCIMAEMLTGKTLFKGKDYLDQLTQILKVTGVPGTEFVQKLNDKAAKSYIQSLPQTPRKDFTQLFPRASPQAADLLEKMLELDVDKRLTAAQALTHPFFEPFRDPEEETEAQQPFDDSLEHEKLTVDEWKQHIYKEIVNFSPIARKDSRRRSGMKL
Description: as §1

Chain of HCK (P08631 whole entry, species assumed): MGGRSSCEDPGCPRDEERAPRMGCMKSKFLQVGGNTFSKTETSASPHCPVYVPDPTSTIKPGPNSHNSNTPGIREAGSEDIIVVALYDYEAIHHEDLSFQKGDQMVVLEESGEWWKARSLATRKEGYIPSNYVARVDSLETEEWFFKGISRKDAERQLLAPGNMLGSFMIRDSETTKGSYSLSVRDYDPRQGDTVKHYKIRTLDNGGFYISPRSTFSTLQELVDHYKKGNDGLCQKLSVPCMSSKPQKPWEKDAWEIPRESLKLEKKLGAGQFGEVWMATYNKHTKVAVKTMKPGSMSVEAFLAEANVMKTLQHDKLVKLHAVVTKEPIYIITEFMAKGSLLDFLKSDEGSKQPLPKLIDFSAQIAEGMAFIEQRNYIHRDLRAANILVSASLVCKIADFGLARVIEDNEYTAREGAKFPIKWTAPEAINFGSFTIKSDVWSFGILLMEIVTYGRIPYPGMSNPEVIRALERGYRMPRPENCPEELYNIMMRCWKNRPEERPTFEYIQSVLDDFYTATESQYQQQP
Chain of LCK (P06239 whole entry, species assumed): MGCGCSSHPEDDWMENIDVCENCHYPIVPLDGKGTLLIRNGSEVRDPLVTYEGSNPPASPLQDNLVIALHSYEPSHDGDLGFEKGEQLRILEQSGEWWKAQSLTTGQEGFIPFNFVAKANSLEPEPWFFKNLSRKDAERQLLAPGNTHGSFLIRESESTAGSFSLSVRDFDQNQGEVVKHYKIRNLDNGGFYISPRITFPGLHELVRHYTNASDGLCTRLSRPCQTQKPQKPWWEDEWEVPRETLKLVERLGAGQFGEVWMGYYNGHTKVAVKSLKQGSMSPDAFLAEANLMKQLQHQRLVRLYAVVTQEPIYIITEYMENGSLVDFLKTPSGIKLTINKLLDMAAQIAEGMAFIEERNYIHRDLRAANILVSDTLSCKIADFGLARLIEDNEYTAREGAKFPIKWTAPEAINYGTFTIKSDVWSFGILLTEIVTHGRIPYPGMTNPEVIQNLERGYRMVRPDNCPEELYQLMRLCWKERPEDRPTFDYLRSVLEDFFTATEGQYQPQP
Chain of FYN (P06241 whole entry, species assumed): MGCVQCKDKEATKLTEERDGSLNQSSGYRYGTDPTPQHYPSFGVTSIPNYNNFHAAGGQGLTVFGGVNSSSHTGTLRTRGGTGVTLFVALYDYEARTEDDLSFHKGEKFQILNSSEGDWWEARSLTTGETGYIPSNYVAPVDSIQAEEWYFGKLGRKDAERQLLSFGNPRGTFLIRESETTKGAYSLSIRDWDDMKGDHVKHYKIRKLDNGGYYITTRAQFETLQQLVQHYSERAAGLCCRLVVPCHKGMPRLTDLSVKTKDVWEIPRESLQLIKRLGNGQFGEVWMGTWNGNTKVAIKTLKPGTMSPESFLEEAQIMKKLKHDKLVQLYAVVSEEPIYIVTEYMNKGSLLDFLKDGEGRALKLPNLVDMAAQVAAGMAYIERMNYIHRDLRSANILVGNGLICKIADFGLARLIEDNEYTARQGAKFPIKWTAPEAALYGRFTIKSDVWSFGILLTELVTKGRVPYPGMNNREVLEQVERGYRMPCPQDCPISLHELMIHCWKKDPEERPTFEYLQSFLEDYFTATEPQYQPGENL
Chain of BTK (Q06187 whole entry, species assumed): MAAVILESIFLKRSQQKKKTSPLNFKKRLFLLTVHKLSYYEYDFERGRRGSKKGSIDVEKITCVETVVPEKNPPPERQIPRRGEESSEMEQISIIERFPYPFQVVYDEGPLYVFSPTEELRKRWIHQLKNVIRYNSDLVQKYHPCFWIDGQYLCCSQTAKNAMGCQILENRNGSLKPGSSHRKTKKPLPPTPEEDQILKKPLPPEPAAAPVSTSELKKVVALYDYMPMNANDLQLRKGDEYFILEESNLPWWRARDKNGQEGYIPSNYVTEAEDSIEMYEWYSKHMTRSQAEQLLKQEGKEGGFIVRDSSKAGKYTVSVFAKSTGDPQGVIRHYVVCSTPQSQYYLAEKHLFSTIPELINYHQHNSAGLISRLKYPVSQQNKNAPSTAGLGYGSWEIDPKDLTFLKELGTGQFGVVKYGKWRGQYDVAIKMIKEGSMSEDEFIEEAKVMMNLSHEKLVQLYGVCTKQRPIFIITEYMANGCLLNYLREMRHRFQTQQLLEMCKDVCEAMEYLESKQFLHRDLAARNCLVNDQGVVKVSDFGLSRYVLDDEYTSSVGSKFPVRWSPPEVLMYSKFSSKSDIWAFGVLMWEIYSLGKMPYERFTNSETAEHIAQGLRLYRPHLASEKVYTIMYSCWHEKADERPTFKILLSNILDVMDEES
Chain of PDGFR_beta (P09619 33-1106, species assumed): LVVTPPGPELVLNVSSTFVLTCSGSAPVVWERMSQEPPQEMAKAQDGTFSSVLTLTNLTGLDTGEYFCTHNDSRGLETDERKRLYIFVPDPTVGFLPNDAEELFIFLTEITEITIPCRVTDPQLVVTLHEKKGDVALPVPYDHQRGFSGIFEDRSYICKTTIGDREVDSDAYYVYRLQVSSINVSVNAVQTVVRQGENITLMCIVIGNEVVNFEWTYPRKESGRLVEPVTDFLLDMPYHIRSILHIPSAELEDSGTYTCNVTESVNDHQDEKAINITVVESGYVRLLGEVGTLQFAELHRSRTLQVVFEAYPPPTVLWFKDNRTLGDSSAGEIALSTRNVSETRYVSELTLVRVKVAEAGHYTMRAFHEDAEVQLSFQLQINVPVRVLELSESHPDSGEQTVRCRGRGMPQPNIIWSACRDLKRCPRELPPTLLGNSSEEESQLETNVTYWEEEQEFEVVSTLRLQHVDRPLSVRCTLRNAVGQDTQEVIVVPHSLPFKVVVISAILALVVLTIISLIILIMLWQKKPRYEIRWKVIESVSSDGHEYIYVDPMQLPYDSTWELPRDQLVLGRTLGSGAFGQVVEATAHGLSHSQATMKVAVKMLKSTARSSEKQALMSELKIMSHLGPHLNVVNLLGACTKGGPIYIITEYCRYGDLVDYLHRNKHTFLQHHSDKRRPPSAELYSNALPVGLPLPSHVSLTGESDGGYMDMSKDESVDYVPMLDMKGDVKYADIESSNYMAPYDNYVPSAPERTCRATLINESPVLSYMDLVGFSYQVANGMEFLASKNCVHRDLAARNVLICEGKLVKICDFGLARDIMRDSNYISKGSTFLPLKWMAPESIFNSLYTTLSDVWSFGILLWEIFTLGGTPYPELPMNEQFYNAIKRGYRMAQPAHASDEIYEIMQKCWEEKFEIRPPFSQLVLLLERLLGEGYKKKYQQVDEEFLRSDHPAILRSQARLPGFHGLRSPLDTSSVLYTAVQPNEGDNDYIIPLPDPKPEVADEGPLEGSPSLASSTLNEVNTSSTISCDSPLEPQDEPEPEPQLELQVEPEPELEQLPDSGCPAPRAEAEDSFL
Chain of SRC (P12931 whole entry, species assumed): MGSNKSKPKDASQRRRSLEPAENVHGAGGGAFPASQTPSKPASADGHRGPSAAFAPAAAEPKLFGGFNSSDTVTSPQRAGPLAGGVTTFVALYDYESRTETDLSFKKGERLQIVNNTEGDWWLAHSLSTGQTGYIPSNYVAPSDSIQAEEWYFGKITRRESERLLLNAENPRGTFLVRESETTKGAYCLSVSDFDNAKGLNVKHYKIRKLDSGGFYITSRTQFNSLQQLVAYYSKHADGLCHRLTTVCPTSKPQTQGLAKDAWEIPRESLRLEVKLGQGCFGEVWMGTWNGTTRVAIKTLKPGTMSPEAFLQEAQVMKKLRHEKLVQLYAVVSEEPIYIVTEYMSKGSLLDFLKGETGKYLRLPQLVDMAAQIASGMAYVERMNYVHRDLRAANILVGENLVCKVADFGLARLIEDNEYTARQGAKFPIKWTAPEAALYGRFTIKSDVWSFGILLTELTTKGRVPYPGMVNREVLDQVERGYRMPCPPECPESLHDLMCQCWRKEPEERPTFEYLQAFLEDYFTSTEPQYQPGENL
Chain of EPHA2 (P29317 24-976, species assumed): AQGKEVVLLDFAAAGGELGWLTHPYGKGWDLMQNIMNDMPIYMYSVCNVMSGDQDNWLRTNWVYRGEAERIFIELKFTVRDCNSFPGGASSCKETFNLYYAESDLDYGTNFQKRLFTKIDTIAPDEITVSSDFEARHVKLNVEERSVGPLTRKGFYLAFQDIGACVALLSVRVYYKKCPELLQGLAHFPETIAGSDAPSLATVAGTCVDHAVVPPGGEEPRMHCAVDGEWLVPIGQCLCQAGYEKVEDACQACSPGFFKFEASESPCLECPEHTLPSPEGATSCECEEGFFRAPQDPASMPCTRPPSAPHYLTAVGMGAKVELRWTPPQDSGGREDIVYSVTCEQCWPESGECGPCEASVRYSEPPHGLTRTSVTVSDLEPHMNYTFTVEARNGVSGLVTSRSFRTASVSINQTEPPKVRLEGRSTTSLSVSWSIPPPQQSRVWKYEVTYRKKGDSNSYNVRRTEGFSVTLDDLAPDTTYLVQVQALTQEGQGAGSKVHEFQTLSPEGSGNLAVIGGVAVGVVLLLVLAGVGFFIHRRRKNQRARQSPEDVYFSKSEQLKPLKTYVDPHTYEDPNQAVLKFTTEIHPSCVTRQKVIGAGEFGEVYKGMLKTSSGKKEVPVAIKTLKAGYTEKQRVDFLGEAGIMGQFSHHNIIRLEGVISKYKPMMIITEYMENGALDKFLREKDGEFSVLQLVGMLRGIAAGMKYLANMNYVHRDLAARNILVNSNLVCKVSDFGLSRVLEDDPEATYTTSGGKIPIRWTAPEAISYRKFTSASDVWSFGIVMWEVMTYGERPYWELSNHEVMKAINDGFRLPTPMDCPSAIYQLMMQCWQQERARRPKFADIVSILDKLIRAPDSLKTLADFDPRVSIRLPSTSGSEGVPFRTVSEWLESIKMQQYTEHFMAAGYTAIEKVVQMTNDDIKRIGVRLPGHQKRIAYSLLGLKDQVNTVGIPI

Row | Structure (SMILES) | inhibition at 0.01 µM [1] [%] | inhibition at 1 µM [1] [%] | inhibition at 0.01 µM [2] [%] | inhibition at 1 µM [2] [%] | inhibition at 0.01 µM [4] [%] | inhibition at 1 µM [4] [%] | inhibition at 0.01 µM [5] [%] | inhibition at 1 µM [5] [%] | inhibition at 0.01 µM [6] [%] | inhibition at 1 µM [6] [%] | inhibition at 0.01 µM [7] [%] | inhibition at 1 µM [7] [%] | inhibition at 0.01 µM [8] [%] | inhibition at 1 µM [8] [%] | inhibition at 0.01 µM [9] [%] | inhibition at 1 µM [9] [%] | inhibition at 0.01 µM [10] [%] | inhibition at 1 µM [10] [%] | inhibition at 0.01 µM [11] [%] | inhibition at 1 µM [11] [%] | other results
1 | COCCOCCOCCNC(=O)OCCN1CCN(c2cc(Nc3ncc(C(=O)Nc4c(C)cccc4Cl)s3)nc(C)n2)CC1 [mPEG3-NHCOO-Dasatinib] | 12 | -5 | 5 | 3 | 98 | 99 | 1 | -1 | -1 | 0 | 98 | 98 | 99 | 99 | 99 | 100 | 97 | 98 | 40 | 100 | inhibition at 0.01 µM [3]: 99%; inhibition at 1 µM [3]: 99%; inhibition at 0.01 µM [12]: 48%; inhibition at 1 µM [12]: 99%; inhibition at 0.01 µM [13]: 99%; inhibition at 1 µM [13]: 99%; inhibition at 0.01 µM [14]: 3%; inhibition at 1 µM [14]: 11%; inhibition at 0.01 µM [15]: 0%; inhibition at 1 µM [15]: 2%
2 | COCCOCCOCCOCCOCCOCCOCCNC(=O)OCCN1CCN(c2cc(Nc3ncc(C(=O)Nc4c(C)cccc4Cl)s3)nc(C)n2)CC1 [mPEG7-NHCOO-Dasatinib] | 3 | 4 | 1 | 0 | 98 | 98 | 3 | 7 | 0 | 2 | 98 | 99 | 98 | 98 | 99 | 100 | 98 | 98 | 36 | 101 | inhibition at 0.01 µM ([3]; ABL (H396P), 10 nM): 99%; inhibition at 1 µM ([3]; ABL (H396P), 1 μM): 99%; inhibition at 0.01 µM [12]: 60%; inhibition at 1 µM [12]: 100%; inhibition at 0.01 µM ([13]; ABL, 10 nM): 99%; inhibition at 1 µM ([13]; ABL, 1 μM): 99%; inhibition at 0.01 µM [14]: 2%; inhibition at 1 µM [14]: 10%; inhibition at 0.01 µM [15]: 0%; inhibition at 1 µM [15]: 0%
